From paper PMC9061857, “A fluorogenic probe for granzyme B enables in-biopsy evaluation and screening of response to anticancer immunotherapies” (Nature Communications, 2022)
*1 amine or outer side, *2 acyl side, *3 side chain or, on linkers, in order; H or OH if unused. Primed or numbered codes have the meaning given here. The star is where a group is joined. BODIPY(FL) = CC1=CC(C)=[N+]2C1=Cc1ccc(CCC(=O)*)n1[B-]2(F)F; Ethylenediamine = C(CN[*:2])N[*:1]; AMC = Cc1cc(=O)oc2cc(N*)ccc12; Dabcyl′ = quencher

Tests used:
human GzmB (hGzmB) = target: T1, human GzmB (hGzmB) (Homo sapiens, UniProt P10144); assay: HPLC conversion of fluorogenic peptides by hGzmB; assay type: biochemical; conditions: TRIS buffer, 37 °C
T1 construct: For active GzmB vs pro-GzmB, p < 0.0001
T1 sequence (P10144 21-247): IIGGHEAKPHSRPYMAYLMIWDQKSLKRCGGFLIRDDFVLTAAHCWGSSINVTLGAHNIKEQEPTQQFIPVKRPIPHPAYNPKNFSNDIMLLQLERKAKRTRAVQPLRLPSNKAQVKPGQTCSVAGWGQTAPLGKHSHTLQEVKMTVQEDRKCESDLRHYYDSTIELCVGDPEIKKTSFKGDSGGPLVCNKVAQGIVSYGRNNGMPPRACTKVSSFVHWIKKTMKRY
Experimental: (§1) Supplementary Figure 1. Reactivity of fluorogenic substrates against human GzmB and limits of detection. a) Reaction conversion rates (by HPLC-UV detection at 350 nm) for Ac-IEPD-AMC (50 μM) in TRIS buffer (see Methods) at 37 °C containing different concentrations of hGzmB. Data presented as mean values±SEM (n=3 independent biological experiments). b) Reaction conversion rates (by HPLC-UV detection at 500 nm) for the tetrapeptide T1 (25 μM) in TRIS buffer at 37 °C containing different concentrations of hGzmB. Data presented as mean values±SEM (3 independent biological experiments).
(§2) Source data provided as a Source Data file.
(§3) (1 picture or pasted object on this page, not shown here)
Supplementary Table 1. Chemical structures and reactivity of FRET-based tetrapeptides against human GzmB.
Code Structure Linker Quencher HPLC conversion HPLC conversion […]
Supplementary Table 2. Sequences and reactivity of FRET-based hexapeptides against […]
Code Peptide sequence HPLC conversion
H1 Ile-Glu-Pro-Asp-Ala-Gly 75%
H2 Ile-Glu-Pro-Asp-Ser-Gly 80%
H3 Ile-Glu-Pro-Asp-Ser-Leu 80%
H4 Ile-Glu-Pro-Asp-Trp-Leu 82%
H6 Ile-Glu-Pro-Asp-Trp-Arg 40%
H7 Ile-Glu-Pro-Asp-Arg-Leu 60%
H5m Ile-Glu-Phe-Asp-Ala-Leu 70%

GzmB = conditions: 4-mer, fluorogenic dye; ref [39]; cited from earlier work
From the text: Table 1 Summary of fluorescent peptide-based probes for GzmB. | column: Kcat (s^−1); KM (µM); Kcat/KM (M^−1 s^−1)

hGzmB = assay: Limit of detection of hGzmB by probe fluorescence; assay type: biochemical, human; conditions: limit of detection of hGzmB (Fig. S1)
Experimental: as §1, §2, §3
Supplementary Figure 4. Comparative enzyme selectivity and limit of detection for […]
Ac-IEPD-AMC (all at 25 μM) after incubation for 90 min at 37 °C with hGzmB (light gray bars), human caspase-3 (dark gray bars) and hGzmA (white bars) (all enzymes used at 20 nM). Data presented as mean values±SEM (n=3). Excitation wavelengths: 450 nm (for […]
450 nm (for Ac-IEPD-AMC). b) Limit of detection of hGzmB by fluorescence emission […]
presented as mean values±SD (2 independent experiments with 3 technical replicates).

human granzyme B (human) [1] = target: human granzyme B (human) (UniProt P10144)
Chain of human granzyme B (human) (P10144 21-247): as above

human granzyme B (human) [2] = target: human granzyme B (human) (UniProt P10144); remark: listed apart in the source
human granzyme B (human) [3] = target: human granzyme B (human) (UniProt P10144); remark: listed apart in the source
human granzyme B (human) [4] = target: human granzyme B (human) (UniProt P10144); remark: listed apart in the source
[5] = probe 25 μM (Ac-IEPD-AMC 50 μM), HPLC-UV

Question: What does the source list for Ac-IEPD-{AMC}?
Answer: HPLC conversion rate (human GzmB (hGzmB); 2h-20 nM hGzmB, Data 1): 0.5%; HPLC conversion rate (human GzmB (hGzmB); 2h-20 nM hGzmB, Data 2): 0.5%; HPLC conversion rate (human GzmB (hGzmB); 2h-20 nM hGzmB, Data 3): 0.5%; HPLC conversion rate (human GzmB (hGzmB); 2h-50 nM hGzmB, Data 1): 2.5%; HPLC conversion rate (human GzmB (hGzmB); 2h-50 nM hGzmB, Data 2): 2%; HPLC conversion rate (human GzmB (hGzmB); 2h-50 nM hGzmB, Data 3): 2.5%; HPLC conversion rate (human GzmB (hGzmB); 2h-100 nM hGzmB, Data 1): 7.5%; HPLC conversion rate (human GzmB (hGzmB); 2h-100 nM hGzmB, Data 2): 5%; HPLC conversion rate (human GzmB (hGzmB); 2h-100 nM hGzmB, Data 3): 6.5%; HPLC conversion rate (human GzmB (hGzmB); 6h-20 nM hGzmB, Data 1): 0.5%; HPLC conversion rate (human GzmB (hGzmB); 6h-20 nM hGzmB, Data 2): 0.5%; HPLC conversion rate (human GzmB (hGzmB); 6h-20 nM hGzmB, Data 3): 0.75%; HPLC conversion rate (human GzmB (hGzmB); 6h-50 nM hGzmB, Data 1): 3%; HPLC conversion rate (human GzmB (hGzmB); 6h-50 nM hGzmB, Data 2): 2%; HPLC conversion rate (human GzmB (hGzmB); 6h-50 nM hGzmB, Data 3): 2%; HPLC conversion rate (human GzmB (hGzmB); 6h-100 nM hGzmB, Data 1): 8.5%; HPLC conversion rate (human GzmB (hGzmB); 6h-100 nM hGzmB, Data 2): 7%; HPLC conversion rate (human GzmB (hGzmB); 6h-100 nM hGzmB, Data 3): 9%; HPLC conversion rate (human GzmB (hGzmB); 24h-20 nM hGzmB, Data 1): 1.5%; HPLC conversion rate (human GzmB (hGzmB); 24h-20 nM hGzmB, Data 2): 1%; HPLC conversion rate (human GzmB (hGzmB); 24h-20 nM hGzmB, Data 3): 1.5%; HPLC conversion rate (human GzmB (hGzmB); 24h-50 nM hGzmB, Data 1): 4%; HPLC conversion rate (human GzmB (hGzmB); 24h-50 nM hGzmB, Data 2): 2.5%; HPLC conversion rate (human GzmB (hGzmB); 24h-50 nM hGzmB, Data 3): 3.5%; HPLC conversion rate (human GzmB (hGzmB); 24h-100 nM hGzmB, Data 1): 13%; HPLC conversion rate (human GzmB (hGzmB); 24h-100 nM hGzmB, Data 2): 9%; HPLC conversion rate (human GzmB (hGzmB); 24h-100 nM hGzmB, Data 3): 12.5%; HPLC conversion (20 nM hGzmB, 2 h) (human GzmB (hGzmB); [5]): < 1%; HPLC conversion (100 nM hGzmB, 24 h) (human GzmB (hGzmB); [5]): 10%; Kcat/KM (GzmB): 3300 M⁻¹ s⁻¹; Km (GzmB): 160 µM; kcat (GzmB): 0.5 s⁻¹; LoD (hGzmB): 25 nM

B1: probe H5 (peptide)
peptide: {BODIPY(FL)}-IEPDAL-{Dabcyl′}
Question: Which signal-to-background ratio of fluorescence emission (peptide 25 μM, hGzmB 20 nM) (human granzyme B (human) [1]) does the source give for B1 here?
Answer: 153 fold

Question: And the t50: time to reach 50-fold fluorescence increase (peptide 25 μM, hGzmB 20 nM) (human granzyme B (human) [1])?
Answer: 7 min

Question: What about the KM of cleavage by hGzmB (20 nM), Michaelis-Menten fit (human granzyme B (human) [2]) of the same molecule?
Answer: 9.6 µM

Question: And the Kcat of cleavage by hGzmB (20 nM), Michaelis-Menten fit (human granzyme B (human) [2])?
Answer: 117 s⁻¹

Question: And the Kcat/KM of cleavage by hGzmB (20 nM), Michaelis-Menten fit (human granzyme B (human) [2])?
Answer: 1.2e+07 M⁻¹ s⁻¹

B2: tetrapeptide T1 (peptide)
peptide: {BODIPY(FL)}-IEPD-{Ethylenediamine-Dabcyl′}
Question: Which results are given for B2?
Answer: enzymatic cleavage of T1 by hGzmB (20 nM for 2 h: <5%; 100 nM for 24 h: 14%) (human granzyme B (human) [3]): 14%; KM of cleavage by GzmB (human granzyme B (human) [2]): 30.8 µM; Kcat of cleavage by GzmB (human granzyme B (human) [2]): 2.3 s⁻¹; Kcat/KM of cleavage by GzmB (human granzyme B (human) [2]): 59000 M⁻¹ s⁻¹

B3: Ac-IEPD-AMC (peptide)
peptide: Ac-IEPD-{AMC}
SMILES: CC[C@H](C)[C@H](NC(C)=O)C(=O)N[C@@H](CCC(=O)O)C(=O)N1CCC[C@H]1C(=O)N[C@@H](CC(=O)O)C(=O)Nc1ccc2c(C)cc(=O)oc2c1
Question: Which enzymatic cleavage of Ac-IEPD-AMC by hGzmB (20 nM for 2 h: <1%; 100 nM for 24 h: 10%) (human granzyme B (human) [3]) does the source give for B3 here?
Answer: 10%

B4: hexapeptide H6 (peptide)
peptide: {BODIPY(FL)}-IEPDWR-{Dabcyl′}
Question: Which results are given for B4?
Answer: conversion (cleavage) by hGzmB (human granzyme B (human) [4]): 40%; signal-to-background ratio of fluorescence emission (peptide 25 μM, hGzmB 20 nM) (human granzyme B (human) [1]): 12 fold
